Results taken from the supplement of paper PMC4862054.

Assays:
Details in all cases: incubation time: 72 h
[1] = tested on: CAL-85-1; test: normalised response (% of control), CellTiter-Glo; higher = more viable cells (100 = DMSO, 0 = benzethonium chloride kill control)
Method in brief: (§1)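 For each plate, 0.1 % DMSO was set to 100 and a positive kill control to 0. Breast cancer cell lines (20 µl suspension) were seeded into 384-well plates already holding compound at 5 concentrations in 10-fold steps over a 10,000-fold range chosen per compound, and incubated for 72 h. CellTox Green fluorescence at 485/520 nm was read before CellTiter-Glo luminescence, which followed 10 min at room temperature. Each value is the normalised signal at one concentration.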

[2] = tested on: DU-4475; test: as above
Method in brief: as §1

[3] = tested on: HCC1599; test: as above
Method in brief: as §1

[4] = tested on: MDA-MB-453; test: as above
Method in brief: as §1

[5] = tested on: CAL-51; test: as above
Method in brief: as §1

[6] = tested on: BT-474; test: as above
Method in brief: as §1

[7] = tested on: Hs578T; test: as above
Method in brief: as §1

[8] = tested on: MDA-MB-436; test: as above
Method in brief: as §1

[9] = tested on: MFM-223; test: as above
Method in brief: as §1

[10] = tested on: MCF-10A; test: as above
Method in brief: as §1

[11] = tested on: HCC1143; test: as above
Method in brief: as §1

[12] = tested on: SK-BR-3; test: as above
Method in brief: as §1

[13] = tested on: CAL-120; test: as above
Method in brief: as §1

[14] = tested on: MDA-MB-468; test: as above
Method in brief: as §1

[15] = tested on: CAL-148; test: as above
Method in brief: as §1

[16] = tested on: HDQ-P1; test: as above
Method in brief: as §1

[17] = tested on: HCC1937; test: as above
Method in brief: as §1

[18] = tested on: MDA-MB-231; test: as above
Method in brief: as §1

[19] = tested on: BT-549; test: as above
Method in brief: as §1

[20] = tested on: MDA-MB-436; test: drug sensitivity score (DSS), CellTox Green (DSS (AUC-based score)); higher = stronger drug effect (viability inhibition or cytotoxicity); extreme values may be limits of the assay
Method in brief: (§2)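 After 72 h of incubation in 384-well plates with compound at 5 concentrations (10-fold steps, 10,000-fold range set per compound), breast cancer cell lines seeded in 20 µl suspension were read first for CellTox Green fluorescence at 485/520 nm. CellTiter-Glo luminescence was measured next, after 10 min at room temperature. Normalisation on each plate used 0.1 % DMSO and a positive kill control, and the drug sensitivity score was computed from the area under the fitted dose-response curve.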

[21] = tested on: MDA-MB-468; test: as above
Method in brief: as §2

`Cn1c(=O)c(F)c(Nc2ccc(I)cc2F)c2c(=O)n(C[C@@H](O)CO)cnc21` [TAK-733] (1000 nM) was tested, and the normalised response [1] was 43.1%, the normalised response [2] was 0.81% and the normalised response [3] was 82%. For the same compound, the normalised response [4] was 97.7%, the normalised response [5] was 78.2% and the normalised response [6] was 57.4%. It also gave a normalised response [7] of 70.2%, a normalised response [8] of 76.8% and a normalised response [9] of 70.2%. It also gave a normalised response [10] of 35.5%, a normalised response [11] of 76.7% and a normalised response [12] of 105%. It also gave a normalised response [13] of 64.2%, a normalised response [14] of 73.6% and a normalised response [15] of 98.9%. The normalised response [16] was 55.3%, the normalised response [17] was 68.3% and the normalised response [18] was 56.4%. It also gave a normalised response [19] of 84%.

`COC1=C2C[C@@H](C)C[C@H](OC)[C@H](O)[C@@H](C)/C=C(\C)[C@H](OC(N)=O)[C@@H](OC)/C=C\C=C(/C)C(=O)NC(=CC1=O)C2=O` [Geldanamycin] (10000 nM) showed a normalised response [1] of 10.5%, a normalised response [2] of 0.14% and a normalised response [3] of 45%. For the same compound, the normalised response [4] was 29.5%, the normalised response [5] was 6.33% and the normalised response [6] was 8.17%. It also gave a normalised response [7] of 16.8%, a normalised response [8] of 24.4% and a normalised response [9] of 20.3%. For the same compound, the normalised response [10] was 10.7%, the normalised response [11] was 24.1% and the normalised response [12] was 30.7%. It also gave a normalised response [13] of 26.7%, a normalised response [14] of 7.56% and a normalised response [15] of 33.4%. For the same compound, the normalised response [16] was 19%, the normalised response [17] was 24.2% and the normalised response [18] was 3.82%. For the same compound, the normalised response [19] was 19.2%.

For `CC(=O)O[C@H]1C(=O)[C@@]2(C)[C@H]([C@H](OC(=O)c3ccccc3)[C@]3(O)C[C@H](OC(=O)[C@H](O)[C@@H](NC(=O)c4ccccc4)c4ccccc4)C(C)=C1C3(C)C)[C@]1(OC(C)=O)CO[C@@H]1C[C@@H]2O` [Paclitaxel] (1000 nM), the normalised response [1] was 20.4%, the normalised response [2] was 34.8% and the normalised response [3] was 33.6%. It also gave a normalised response [4] of 51.5%, a normalised response [5] of 26.2% and a normalised response [6] of 29.5%. The normalised response [7] was 9.73%, the normalised response [8] was 27% and the normalised response [9] was 38.8%. It also gave a normalised response [10] of 32.3%, a normalised response [11] of 31.2% and a normalised response [12] of 11.2%. It also gave a normalised response [13] of 48.9%, a normalised response [14] of 23.9% and a normalised response [15] of 44.1%. It also gave a normalised response [16] of 61.2%, a normalised response [17] of 64.7% and a normalised response [18] of 25.3%. It also gave a normalised response [19] of 12.1%.

With `CS(=O)(=O)CCNCc1ccc(-c2ccc3ncnc(Nc4ccc(OCc5cccc(F)c5)c(Cl)c4)c3c2)o1` [Lapatinib] (1000 nM) the normalised response [1] was 73.5%, the normalised response [2] was 106% and the normalised response [3] was 97.1%. For the same compound, the normalised response [4] was 80.5%, the normalised response [5] was 120% and the normalised response [6] was 96.8%. The normalised response [7] was 101%, the normalised response [8] was 103% and the normalised response [9] was 99.5%. The normalised response [10] was 43.5%, the normalised response [11] was 95.4% and the normalised response [12] was 28.5%. It also gave a normalised response [13] of 105%, a normalised response [14] of 83.6% and a normalised response [15] of 96.3%. It also gave a normalised response [16] of 69.5%, a normalised response [17] of 101% and a normalised response [18] of 105%. It also gave a normalised response [19] of 105%.

Compound `CS(=O)(=O)OCCCCOS(C)(=O)=O` [Busulfan] has a drug sensitivity score [20] of 0 and a drug sensitivity score [21] of 3.07.

Work on `CN1CCN(c2ccc3nc(-c4c(N)c5c(F)cccc5[nH]c4=O)[nH]c3c2)CC1` [Dovitinib] (10000 nM) yielded a normalised response [1] of 95.9%, a normalised response [2] of 99.9% and a normalised response [3] of 102%. The normalised response [4] was 96.4%, the normalised response [5] was 127% and the normalised response [6] was 91.5%. It also gave a normalised response [7] of 95.8%, a normalised response [8] of 87.6% and a normalised response [9] of 77.6%. For the same compound, the normalised response [10] was 100%, the normalised response [11] was 90.1% and the normalised response [12] was 91.5%. It also gave a normalised response [13] of 89.4%, a normalised response [14] of 78.1% and a normalised response [15] of 88.1%. It also gave a normalised response [16] of 89.8%, a normalised response [17] of 88% and a normalised response [18] of 94%. It also gave a normalised response [19] of 95.6%.

With `Nc1nccc(-c2c(-c3ccc(F)cc3)ncn2C2CCCCC2)n1` the drug sensitivity score [20] was 0 and the drug sensitivity score [21] was 0.

For `CCCC(CCC)C(=O)O` [Valproic acid], the drug sensitivity score [20] was 0 and the drug sensitivity score [21] was 0.

Work on `COc1c(C)cnc(Cn2cnc3c(Cl)nc(N)nc32)c1C` [BIIB021] (10000 nM) yielded a normalised response [1] of 18.6%, a normalised response [2] of 0.28% and a normalised response [3] of 47.4%. For the same compound, the normalised response [4] was 27.5%, the normalised response [5] was 11.4% and the normalised response [6] was 27.5%. It also gave a normalised response [7] of 33.7%, a normalised response [8] of 41.7% and a normalised response [9] of 35.1%. It also gave a normalised response [10] of 13.4%, a normalised response [11] of 31.5% and a normalised response [12] of 34.3%. It also gave a normalised response [13] of 45.4%, a normalised response [14] of 23.8% and a normalised response [15] of 25.1%. It also gave a normalised response [16] of 20.3%, a normalised response [17] of 29.4% and a normalised response [18] of 16.7%. For the same compound, the normalised response [19] was 38.2%.

`C[C@@]1(C(=O)Nc2ccc(F)nc2)CCCN1c1nc(Nc2cc(C3CC3)n[nH]2)c2cccn2n1` (10000 nM) showed a normalised response [1] of 38.9%, a normalised response [2] of 31.4% and a normalised response [3] of 54.9%. It also gave a normalised response [4] of 127%, a normalised response [5] of 19.9% and a normalised response [6] of 29.8%. The normalised response [7] was 44.7%, the normalised response [8] was 40.6% and the normalised response [9] was 25.2%. The normalised response [10] was 7.53%, the normalised response [11] was 36.1% and the normalised response [12] was 57.4%. The normalised response [13] was 13.4%, the normalised response [14] was 20.4% and the normalised response [15] was 56.7%. For the same compound, the normalised response [16] was 8.28%, the normalised response [17] was 62.6% and the normalised response [18] was 26.1%. For the same compound, the normalised response [19] was 12.7%.

With `O=c1[nH]cc(F)c(=O)[nH]1` [Fluorouracil] the drug sensitivity score [20] was 0.291.

`COc1ccc(C2=N[C@@H](c3ccc(Cl)cc3)[C@@H](c3ccc(Cl)cc3)N2C(=O)N2CCNC(=O)C2)c(OC(C)C)c1` [Nutlin-3] (10000 nM) showed a normalised response [1] of 97.3%, a normalised response [2] of 72.7% and a normalised response [3] of 98.5%. For the same compound, the normalised response [4] was 68.7%, the normalised response [5] was 50.7% and the normalised response [6] was 93.3%. The normalised response [7] was 102%, the normalised response [8] was 102% and the normalised response [9] was 93.3%. It also gave a normalised response [10] of 89.2%, a normalised response [11] of 92.9% and a normalised response [12] of 99.1%. It also gave a normalised response [13] of 100%, a normalised response [14] of 78.9% and a normalised response [15] of 71.4%. The normalised response [16] was 97.1%, the normalised response [17] was 97.6% and the normalised response [18] was 91.9%. It also gave a normalised response [19] of 87%.
